Assay results taken from patent publication US7238689B2, “Isoxazoline derivative and herbicide comprising the same as active ingredient” (Ihara Chemical Industry Co., Ltd., priority 2001, dated 2007).

Experiments:
Type in all cases: in vivo
Set-up in all cases: scale not given here
[1] = tested on: Echinochloa crus-galli (L.) Beauv. var. crus-galli; assay: Herbicidal effect by upland foliage treatment; conditions: active ingredient 1000 g/ha, examined at 14th day from treatment
Description: (§1) A sand was filled in a plastic pot of 80 cm^2. Seeds of Echinochloa crus-galli (L.) Beauv. var. crus-galli and Setaria viridis (L.) Beauv. were sowed. Breeding was made in a greenhouse for 2 weeks. Wettable powders produced in accordance with the Formulation 1 were diluted with water and sprayed on the whole foliage of plants from above the plants using a small sprayer in an amount of 1,000 liters per 1 hectare so that the amount of each active ingredient became 1,000 g per 1 hectare. Then, breeding was made in the greenhouse, and the herbicidal effect of each wettable powder was examined at the 14th day from the treatment in accordance with the standard shown in Table 21.

[2] = tested on: Setaria viridis (L.) Beauv.; assay: Herbicidal effect by upland foliage treatment; conditions: active ingredient 1000 g/ha, examined at 14th day from treatment
Description: as §1

[3] = tested on: Echinochloa crus-galli (L.) Beauv. var. crusgalli; assay: Herbicidal effect by upland field soil treatment; conditions: active ingredient 1000 g/ha, examined at 21st day from treatment
Text: (§2) An upland field soil was filled in a plastic pot of 80 cm^2. Seeds of Echinochloa crus-galli (L.) Beauv. var. crusgalli and Setaria viridis (L.) Beauv. were sowed, followed by covering with the same soil. […] Then, breeding was made in a greenhouse, and the herbicidal effect of each wettable powder was examined at the 21st day from the treatment in accordance with the standard shown in Table 21.

[4] = tested on: Setaria viridis (L.) Beauv.; assay: Herbicidal effect by upland field soil treatment; conditions: active ingredient 1000 g/ha, examined at 21st day from treatment
Text: as §2

[5] = tested on: Echinochloa oryzicola Vasing; assay: Herbicidal effect by paddy field soil treatment; conditions: wettable powder, active ingredient 1000 g/ha, examined at the 21st day from the treatment
Procedure, shortened: (§3)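 Seeds sown in puddled paddy soil under 3 cm of water; the next day wettable powders diluted in water were dropped onto the water surface at 1,000 g active ingredient/ha. Plants grown in a greenhouse, with herbicidal effect scored on day 21 against a rating standard.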

[6] = tested on: Monochoria vaginalis (Murm. f.) Presl var. plantaginea (Roxb.) Solms-Laub.; assay: Herbicidal effect by paddy field soil treatment; conditions: wettable powder, active ingredient 1000 g/ha, examined at the 21st day from the treatment
Procedure, shortened: as §3

Row | Structure (SMILES) | herbicidal effect (index per standard of Table 21), Echinochloa curs-galli (L.) Beauv. Var. crus-galli [1] | herbicidal effect (index per standard of Table 21), Setaria viridis (L.) Beauv. [2] | herbicidal effect (index per standard of Table 21), Echinochloa curs-galli (L.) Beauv. Var. crus-galli [3] | herbicidal effect (index per standard of Table 21), Setaria viridis (L.) Beauv. [4] | Herbicidal effect index, Echinochloa oryzicola Vasing [5] | Herbicidal effect index, Monochoria vaginalis (Burm. F.) Presl var. plantaginea (Roxb.) Solms-Laub. [6]
1 | Cc1nn(C)c(C)c1CS(=O)(=O)C1=NOC(C)(C)C1 [3-0036] | 4 | 4 | 5 | 5 |  | 
2 | CC(C)n1nc(Cl)c(CS(=O)(=O)C2=NOC(C)(C)C2)c1C(F)(F)F [3-0076] | 5 | 4 |  |  |  | 
3 | CCCn1nc(C(F)(F)F)c(CS(=O)(=O)C2=NOC(C)(C)C2)c1Cl [3-0077] | 5 | 4 |  |  |  | 
4 | CC1(C)CC(S(=O)(=O)Cc2c(C(F)(F)F)nn(CC3CC3)c2Cl)=NO1 [3-0092] | 4 | 4 |  |  |  | 
5 | C=CCn1nc(C(F)(F)F)c(CS(=O)(=O)C2=NOC(C)(C)C2)c1Cl [3-0104] | 5 | 4 |  |  |  | 
6 | C=CCn1nc(Cl)c(CS(=O)(=O)C2=NOC(C)(C)C2)c1C(F)(F)F [3-0105] | 5 | 4 |  |  |  | 
7 | C#CCn1nc(C(F)(F)F)c(CS(=O)(=O)C2=NOC(C)(C)C2)c1Cl [3-0106] | 5 | 4 |  |  |  | 
8 | C#CCn1nc(Cl)c(CS(=O)(=O)C2=NOC(C)(C)C2)c1C(F)(F)F [3-0107] | 5 | 5 |  |  |  | 
9 | CCOc1snc(C)c1CS(=O)(=O)C1=NOC(C)(C)C1 [4-0008] |  |  | 5 | 5 | 5 | 5
10 | CCOc1c(C)nn(-c2ccccc2)c1CS(=O)(=O)C1=NOC(C)(C)C1 [5-0005] |  |  | 5 | 4 | 5 | 5
11 | Cc1nn(-c2ccccc2)c(CS(=O)(=O)C2=NOC(C)(C)C2)c1OC(F)F [5-0006] |  |  | 5 | 5 | 5 | 5
12 | CC1(C)CC(S(=O)(=O)Cc2nn(-c3ccccc3)cc2OC(F)F)=NO1 [6-0003] |  |  | 5 | 5 | 5 | 5
13 | CC1(C)CC(S(=O)(=O)Cc2ccc[n+]([O-])c2)=NO1 [7-0004] |  |  | 5 | 4 | 5 | 5
14 | CC1(C)CC(S(=O)(=O)Cc2nc(-c3ccccc3)no2)=NO1 [9-0006] |  |  | 5 | 4 | 5 | 5
15 | CC1(C)CC(S(=O)(=O)Cc2sc3ccccc3c2Cl)=NO1 [10-0003] |  |  | 5 | 5 | 5 | 5
16 | CC1(C)CC(S(=O)(=O)Cn2nnc3ccccc32)=NO1 [10-0004] |  |  | 5 | 5 | 5 | 5
17 | Cn1ncc2c(CS(=O)(=O)C3=NOC(C)(C)C3)cccc21 [10-0005] |  |  | 5 | 5 | 5 | 5
18 | CC1(C)CC(S(=O)(=O)Cc2nc3ccccc3s2)=NO1 [10-0006] |  |  | 5 | 4 | 5 | 5
19 | CC1(C)CC(S(=O)(=O)Cc2nc3ccccc3o2)=NO1 [10-0009] |  |  | 5 | 5 | 5 | 5
20 | CC1(C)CC(S(=O)(=O)Cc2cc3ccccc3o2)=NO1 [10-0012] |  |  | 5 | 4 | 5 | 5
21 | Cc1cc2cccc(CS(=O)(=O)C3=NOC(C)(C)C3)c2o1 [10-0013] |  |  | 5 | 5 | 5 | 5
22 | CC1(C)CC(S(=O)(=O)Cc2oc3ccccc3c2Br)=NO1 [10-0014] |  |  | 5 | 5 | 5 | 5
23 | CC1(C)CC(S(=O)(=O)Cc2cccc3ccsc23)=NO1 [10-0015] |  |  | 5 | 5 | 5 | 5
24 | Cn1ncc2cccc(CS(=O)(=O)C3=NOC(C)(C)C3)c21 [10-0016] |  |  | 5 | 4 | 5 | 5
25 | Cc1c(CS(=O)(=O)C2=NOC(C)(C)C2)oc2ccccc12 [10-0017] |  |  | 5 | 5 | 5 | 5
26 | Cn1c(CS(=O)(=O)C2=NOC(C)(C)C2)c(Cl)c2ccccc21 [10-0018] |  |  | 5 | 5 | 5 | 5
